In US4251439A, “Pharmacologically active peptides” (Eli Lilly and Company, priority 1979, dated 1981):
Where a SMILES comes first, the peptide text is derived from it. Where no end group is shown, it is not given here. [ ]: non-standard residue; d: D form. Phg(4-OMe) = COc1ccc([C@H](N)C(=O)O)cc1; dPhg = N[C@@H](C(=O)O)c1ccccc1; Phg = N[C@H](C(=O)O)c1ccccc1

Legend:
mouse = mouse hot plate test (analgesic activity); format: in vivo; conditions: subcutaneous, hot plate 52° C., 15 minutes after administration, latency until jump
Protocol: In this test, a mouse is placed inside an upright acrylic cylinder comprising, as its base, a hot plate surface which is maintained at 52° C. The mouse is given, orally or by subcutaneous injection, a predetermined amount of test compound dissolved or suspended in a suitable carrier, and, 15 minutes after administration of the test compound, the mouse is placed on the hot plate surface. The latency in seconds until the mouse jumps from the hot plate surface is measured. […] This must occur in a dose range which produces no motor incoordination or incapacitation. The following Table records the ED50 results obtained from this test.

mice = conditions: administration intracerebroventricularly; cited from earlier work
[1] = administered parenterally; cited from earlier work
[2] = in vivo; cited from earlier work

COc1ccc([C@H](NC(=O)[C@H](Cc2ccccc2)NC(=O)CNC(=O)[C@@H](C)NC(=O)[C@@H](N)Cc2ccc(O)cc2)C(N)=O)cc1 [Example 1, L-Tyrosyl-D-alanyl-glycyl-L-phenylalanyl-L-p-methoxyphenylglycinamide] (H-Y[dA]GF[Phg(4-OMe)]-NH2)
Analgesic Activity, Hot Plate Test ED50 (mouse): 3.14 mg/kg

C[C@@H](NC(=O)[C@@H](N)Cc1ccc(O)cc1)C(=O)NCC(=O)N[C@@H](Cc1ccccc1)C(=O)N[C@H](C(N)=O)c1ccccc1 [Example 2, L-Tyrosyl-D-alanyl-glycyl-L-phenylalanyl-L-phenylglycinamide] (H-Y[dA]GF[Phg]-NH2)
Analgesic Activity, Hot Plate Test ED50 (mouse): 0.40 mg/kg

C[C@@H](NC(=O)[C@@H](N)Cc1ccc(O)cc1)C(=O)NCC(=O)N[C@@H](Cc1ccccc1)C(=O)N[C@@H](C(N)=O)c1ccccc1 [Example 3, L-Tyrosyl-D-alanyl-glycyl-L-phenylalanyl-D-phenylglycinamide] (H-Y[dA]GF[dPhg]-NH2)
Analgesic Activity, Hot Plate Test ED50 (mouse): 0.23 mg/kg

C[C@@H](NC(=O)[C@@H](N)Cc1ccc(O)cc1)C(=O)NCC(=O)N(C)[C@@H](Cc1ccccc1)C(=O)N[C@H](C(N)=O)c1ccccc1 [Example 6, L-Tyrosyl-D-alanyl-glycyl-L-(N-methyl)phenylalanyl-L-phenylglycinamide]
Analgesic Activity, Hot Plate Test ED50 (mouse): 0.19 mg/kg

C[C@@H](NC(=O)[C@@H](N)Cc1ccc(O)cc1)C(=O)NCC(=O)N(C)[C@@H](Cc1ccccc1)C(=O)N[C@@H](C(N)=O)c1ccccc1 [Example 7, L-Tyrosyl-D-alanyl-glycyl-L-(N-methyl)phenylalanyl-D-phenylglycinamide]
Analgesic Activity, Hot Plate Test ED50 (mouse): 3.82 mg/kg

CCN(C(=O)CNC(=O)[C@@H](C)NC(=O)[C@@H](N)Cc1ccc(O)cc1)[C@@H](Cc1ccccc1)C(=O)N[C@H](C(N)=O)c1ccccc1 [Example 8, L-Tyrosyl-D-alanyl-glycyl-L-(N-ethyl)phenylalanyl-L-phenylglycinamide]
Analgesic Activity, Hot Plate Test ED50 (mouse): 0.064 mg/kg

CCCN(C(=O)CNC(=O)[C@@H](C)NC(=O)[C@@H](N)Cc1ccc(O)cc1)[C@@H](Cc1ccccc1)C(=O)N[C@H](C(N)=O)c1ccccc1 [Example 9, L-Tyrosyl-D-alanyl-glycyl-L-(N-n-propyl)phenylalanyl-L-phenylglycinamide]
Analgesic Activity, Hot Plate Test ED50 (mouse): 0.15 mg/kg

H-Tyr-Gly-Gly-Phe-Met-OH [methionine enkephalin]
analgesic activity (mice): exhibit analgesic activity
useful analgesic activity [1]: practically devoid of any useful analgesic activity

L-Tyrosyl-D-alanyl-glycyl-L-phenylalanyl-D-p-hydroxyphenylglycinamide [Example 4]
Analgesic Activity, Hot Plate Test ED50 (mouse): 1.0 mg/kg

L-Tyrosyl-D-alanyl-glycyl-L-phenylalanyl-D-phenylglycin-N-methylamide [Example 5]
Analgesic Activity, Hot Plate Test ED50 (mouse): 0.74 mg/kg

Y[dA]GF[dF]-OH
analgesic potential [2]: limited analgesic potential
